Test results from patent publication US8722720B2, “Imidazole derivatives as IDO inhibitors” (NewLink Genetics Corporation, priority 2010, dated 2014).
Structures can show the parent of a compound that is named as a salt. Where two headings read alike, the source gives them in different places.

Biological target: T1, purified human IDO protein (Homo sapiens, UniProt P14902)
T1 construct: 2 extra amino acids (linker from the BglII cloning site of pQE70); made in house; host or cells: E. coli M15(pREP4) with plasmid pQE70-hIDO
Assay: Enzymatic IDO assay (kynurenine production, absorbance at 480 nm)
Format: biochemical
Conditions: values reported in ranges
Experimental: The inhibitors were initially diluted in DMSO at 100 mM and were diluted in potassium phosphate 50 mM, added to the reaction mixture at final concentrations raging from 1 mM to 5 nM and preincubated with the enzyme for 5 min at 25° C. The reaction was started by addition of L-tryptophan to 200 μM and incubated 15 min at 37° C. The reaction was stopped by addition of 0.5 vol of 30% trichloroacetic acid and incubated 30 min at 60° C. to hydrolyze N-formylkynurenine to kynurenine. The reaction was centrifuged at 3400 g for 5 min to remove precipitated protein and the supernatant was reacted with 2% (w/v) of p-dimethylaminobenzaldehyde in acetic acid. The reaction was incubated 10 min at 25° C. and read at 480 nm in a spectrophotometer. […] Nonlinear regressions and determination of the IC50 values were performed using the GraphPad Prism 4 software.

[1] = recombinant human IDO, read-out: hIDO IC50

T1 sequence (P14902 whole entry P110S/E119G): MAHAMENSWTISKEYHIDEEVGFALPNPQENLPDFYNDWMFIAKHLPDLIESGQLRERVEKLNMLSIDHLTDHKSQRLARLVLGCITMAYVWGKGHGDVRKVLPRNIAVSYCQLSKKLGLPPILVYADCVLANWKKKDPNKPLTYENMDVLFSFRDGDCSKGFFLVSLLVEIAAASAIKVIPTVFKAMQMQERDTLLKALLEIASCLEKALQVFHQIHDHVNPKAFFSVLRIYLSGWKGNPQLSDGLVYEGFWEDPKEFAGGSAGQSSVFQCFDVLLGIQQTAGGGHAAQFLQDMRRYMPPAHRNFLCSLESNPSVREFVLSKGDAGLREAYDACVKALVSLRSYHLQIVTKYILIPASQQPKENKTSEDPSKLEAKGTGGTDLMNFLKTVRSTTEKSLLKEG

Row | IC50 [1] [µM] | Structure (SMILES) | IC50 (hIDO IC50, recombinant human IDO) [µM]
1 | 1 to 10 | CC(=O)Nc1ccc(CCOc2ccccc2-c2c[nH]cn2)c(Cl)c1 [compound 1159, N-(4-(2-(2-(1H-imidazol-4-yl)phenoxy)ethyl)-3-chlorophenyl)acetamide] | 
2 | > 100 | Clc1ccc2c(-c3c[nH]cn3)ccnc2c1 [compound 969, 7-chloro-4-(1H-imidazol-4-yl)quinoline] | 
3 | 1 to 10 | FC(F)(F)c1ccccc1CCOc1ccccc1-c1c[nH]cn1 [compound 1040, 4-(2-(2-(trifluoromethyl)phenethoxy)phenyl)-1H-imidazole] | 
4 | 1 to 10 | Nc1ccc(CCOc2ccccc2-c2c[nH]cn2)cc1 [compound 1078, 4-(2-(2-(1H-imidazol-4-yl)phenoxy)ethyl) aniline] | 
5 | 10 to 100 | CC(COc1ccccc1-c1c[nH]cn1)c1ccccc1Cl (stereo not drawn) [compound 1109, 4-(2-(2-(2-chlorophenyl)propoxy)phenyl)-1H-imidazole] | 
6 | 10 to 100 | c1ccc(-c2c[nH]cn2)c(OCc2ccc3c(c2)OCO3)c1 [compound 1027, 4-(2-(benzo[d][1,3]dioxol-5-ylmethoxy)phen-yl)-1H-imidazole] | 
7 | 1 to 10 | CC(COc1ccccc1-c1c[nH]cn1)C1CCCCC1 (stereo not drawn) [compound 1052, 4-(2-(2-cyclohexylpropoxy)phenyl)-1H-imidazole hydrochloride] | 
8 | 10 to 100 | Oc1ccc(-c2ccccc2)cc1-c1c[nH]cn1 [compound 1005, 3-(1H-imidazol-4-yl)biphenyl-4-ol] | 
9 | > 100 | c1cc(-c2c[nH]cn2)ccn1 [compound 982, 4-(1H-imidazol-4-yl)pyridine] | 
10 | 10 to 100 | CN(C)c1ccc(CCOc2ccccc2-c2c[nH]cn2)cc1 [compound 1181, 4-(2-(2-(1H-imidazol-4-yl)phenoxy)ethyl)-N,N-dimethylaniline] | 
11 | > 100 | CNC(=O)c1ccccc1CCOc1ccccc1-c1c[nH]cn1 [compound 1332, 2-(2-(2-(1H-imidazol-4-yl)phenoxy)ethyl)-N-methylbenzamide] | 
12 | 10 to 100 | c1ccc(-c2c[nH]cn2)c(OCCc2ccc(N3CCCC3)cc2)c1 [compound 1225, 4-(2-(4-(pyrrolidin-1-yl)phenethoxy)phenyl)-1H-imidazole] | 
13 | 1 to 10 | CC(Cc1ccccc1Cl)Oc1ccccc1-c1c[nH]cn1 (stereo not drawn) [compound 1043, 4-(2-(1-(2-chlorophenyl)propan-2-yloxy)phen-yl)-1H-imidazole] | 
14 | > 100 | c1ccc2c(-c3c[nH]cn3)cncc2c1 [compound 1004, 4-(1H-imidazol-4-yl)isoquinoline] | 

Second part, the compound before the results:

Row | Structure (SMILES) | IC50 [1] [µM] | IC50 (hIDO IC50, recombinant human IDO) [µM]
15 | COC(=O)[C@@H](Cc1cn(C)c2ccccc12)NC(=O)Oc1ccc(Cl)cc1-c1c[nH]cn1 [compound 1264, (R)-methyl 2-(((4-chloro-2-(1H-imidazol-4-yl)phenoxy)carbonyl)amino)-3-(1-methyl-1H-indol-3-yl) propanoate] | 1 to 10 | 
16 | CN1CCN(CC(=O)Nc2ccc(CCOc3ccccc3-c3c[nH]cn3)cc2)CC1 [compound 1212, N-(4-(2-(2-(1H-imidazol-4-yl)phenoxy)ethyl)phenyl)-2-(4-methylpiperazin-1-yl)acetamide] | 10 to 100 | 
17 | Nc1nc(CC(=O)Nc2ccc(CCOc3ccccc3-c3c[nH]cn3)cc2)cs1 [compound 1257, N-(4-(2-(2-(1H-imidazol-4-yl)phenoxy)ethyl)phenyl)-2-(2-aminothiazol-4-yl)acetamide] | 1 to 10 | 
18 | Nc1ncccc1C(=O)Nc1ccc(CCOc2ccccc2-c2c[nH]cn2)c(Cl)c1 [compound 1345, N-(4-(2-(2-(1H-imidazol-4-yl)phenoxy)ethyl)-3-chlorophenyl)-2-aminonicotinamide] | < 1 | 
19 | O=C(Cc1cccc([N+](=O)[O-])c1)Nc1ccc(CCOc2ccccc2-c2c[nH]cn2)cc1 [compound 1241, N-(4-(2-(2-(1H-imidazol-4-yl)phenoxy)ethyl)phenyl)-2-(3-nitrophenyl)acetamide] | 1 to 10 | 
20 | c1ccc2c(c1)NCn1cncc1-2 [compound 1114, 5,6-dihydroimidazo[1,5-c]quinazoline] | > 100 | 
21 | CC(C)(C)CCOc1ccc(O)c(-c2cnc[nH]2)c1 [compound 1107, 4-(3,3-dimethylbutoxy)-2-(1H-imidazol-5-yl) phenol] | 10 to 100 | 
22 | O=C(Nc1ccccc1)Nc1ccc(CCOc2ccccc2-c2cnc[nH]2)cc1 [compound 1152, 1-(4-(2-(2-(1H-imidazol-4-yl)phenoxy)ethyl)phenyl)-3-phenylurea] | < 1 | 
23 | O=C(Cc1ncccn1)Nc1ccc(CCOc2ccccc2-c2c[nH]cn2)cc1 [compound 1227, N-(4-(2-(2-(1H-imidazol-4-yl)phenoxy)ethyl)phenyl)-2-(pyrimidin-2-yl)acetamide] | 1 to 10 | 
24 | CC(C)(C)OC(=O)N1CCC(CCOc2cccc(O)c2-c2cnc[nH]2)CC1 [compound 1240, tert-butyl 4-(2-(3-hydroxy-2-(1H-imidazol-5-yl)phenoxy)ethyl)piperidine-1-carboxylate] | 10 to 100 | 
25 | O=C(O)CCSc1nc(-c2ccccc2)c(-c2ccccc2)[nH]1 [compound 1079, 3-(4,5-diphenyl-1H-imidazol-2-ylthio)propanoic acid] | > 100 | 
26 | O=C(Cn1ccnc1)Nc1ccc(CCOc2ccccc2-c2c[nH]cn2)cc1 [compound 1217, N-(4-(2-(2-(1H-imidazol-4-yl)phenoxy)ethyl)phenyl)-2-(1H-imidazol-1-yl)acetamide] | 1 to 10 | 
27 | c1ccc(-c2cncn2-c2ccccc2)cc1 [compound 1108, 1,5-diphenyl-1H-imidazole] | 10 to 100 | 
28 | CC1Cn2cncc2-c2ccccc21 (stereo not drawn) [compound 1137, 6-methyl-5,6-dihydroimidazo[5,1-a]isoquino-line] | > 100 | 
29 | OC(c1ccccc1)c1c[nH]cn1 (stereo not drawn) [compound 1006, (1H-imidazol-4-yl)(phenyl)methanol] | > 100 | 
30 | O=C(CC1CCOCC1)Nc1ccc(CCOc2ccccc2-c2c[nH]cn2)cc1 [compound 1211, N-(4-(2-(2-(1H-imidazol-4-yl)phenoxy)ethyl)phenyl)-2-(tetrahydro-2H-pyran-4-yl)acetamide] | 1 to 10 | 
31 | O=C(CC1CCCO1)Nc1ccc(CCOc2ccccc2-c2c[nH]cn2)cc1 (stereo not drawn) [compound 1199, N-(4-(2-(2-(1H-imidazol-4-yl)phenoxy)ethyl)phenyl)-2-(tetrahydrofuran-2-yl)acetamide] | 1 to 10 | 
32 | CN(C(=O)Oc1ccc(Cl)cc1-c1c[nH]cn1)c1ccccc1 [compound 1088, 4-chloro-2-(1H-imidazol-4-yl)phenyl methyl(phenyl)carbamate] |  | > 100
33 | O=C(Cc1ccccc1[N+](=O)[O-])Nc1ccc(CCOc2ccccc2-c2c[nH]cn2)cc1 [compound 1242, N-(4-(2-(2-(1H-imidazol-4-yl)phenoxy)ethyl)phenyl)-2-(2-nitrophenyl)acetamide] | < 1 | 
34 | CC(=O)N(Cc1ccccc1)Cc1cccc(COc2ccccc2-c2c[nH]cn2)c1 [compound 959, N-(3-((2-(1H-imidazol-4-yl)phenoxy)methyl)benzyl)-N-benzylacetamide] | 10 to 100 | 
35 | O=C(CN1CCOCC1)Nc1ccc(CCOc2ccccc2-c2c[nH]cn2)cc1 [compound 1214, N-(4-(2-(2-(1H-imidazol-4-yl)phenoxy)ethyl)phenyl)-2-morpholinoacetamide] | 1 to 10 | 
36 | Nc1cccc(CC(=O)Nc2ccc(CCOc3ccccc3-c3c[nH]cn3)cc2)c1 [compound 1244, N-(4-(2-(2-(1H-imidazol-4-yl)phenoxy)ethyl)phenyl)-2-(3-aminophenyl)acetamide] | 1 to 10 | 
